In PMC8215115, “Systemically Achievable Doses of Beer Flavonoids Induce Estrogenicity in Human Endometrial Cells and Cause Synergistic Effects With Selected Pesticides” (Frontiers in Nutrition, 2021):
Entries after “also recorded” stand apart in the source; their conditions may differ.

Tests used:
Ishikawa cells [1] = assay: Sulforhodamine B (SRB) cell viability assay; assay type: cell-based, human; settings: for cytotoxicity at highest applied concentration / Onset of cytotoxicity (lowest observed effect level), LOEL: Ishikawa cells; for cytotoxicity at highest applied concentration: 48 h; for Onset of cytotoxicity (lowest observed effect level), LOEL: 48 h incubation, at least three independent SRB assays
Experimental: To ensure that effects observed in ALP assays were not caused by cytotoxicity, SRB cell viability assays were carried out in parallel. As with estrogenicity assays, 10,000 cells/well were seeded in 96-well plates, allowed to grow for 48 h and incubated with test solutions for another 48 h. Afterwards, cells were fixed by addition of 50% (v/v) trichloroacetic acid and 1 h incubation at 4°C. After 2 times washing with tab water and 2 times of washing with 1% (v/v) acetic acid, plates were dried overnight, incubated with SRB reagent for 45 min, washed twice with water, twice with 1% acetic acid and again dried overnight. Lastly, 10 mM TRIS base buffer was added to dissolve protein-bound SRB and the absorbance of each well was measured at 570 nm with a PerkinElmer Victor 3V^TM plate reader.
To ensure non-cytotoxicity and thus to exclude false reporting anti-estrogenic effects, SRB cell viability assays were carried out in parallel (Ishikawa cells, 48 h incubation) to ALP assays. The single pesticides Dic, End, Fen and Met caused cytotoxic effects at high concentrations, with the lowest observed effect doses reported in Table 3. iX lead to a loss of cellular protein at the highest applied dose of 100 μM, a concentration which was however not applied in ALP assays.

[2] = system: ER-dependent induction of ALP expression in Ishikawa cells; assay: Alkaline phosphatase (ALP) assay for estrogenicity; assay type: cell-based, human; settings: for lowest concentration inducing ALP expression (starting from): single compound; for plateau of enzymatic (ALP) activity: relative to 1 nM E2 = 100%
Text: In the present study, five exemplary pesticides (Figure 1B) were selected based on at least one published report of them acting as ER agonists, among them the publicly discussed herbicide glyphosate (GLP). Alkaline phosphatase (ALP) expression in Ishikawa cells was used as a natural reporter gene system for estrogenicity. On the contrary to some other in vitro test systems, this human endometrial cancer cell line expresses both, ER-α and ER-β, and thus facilitates the observation of interactions between chemicals acting as agonists to different receptor isoforms ([22]). Measuring the ALP-catalyzed conversion rate of 4-nitrophenyl phosphate to 4-nitrophenol as a marker for enzyme expression and thus ER activation, the test compounds were tested individually and in combination to generally address the concern of cumulative effects within this class of pesticides. To enable a direct comparison of effect strength, the same test system was used to determine the estrogenicity of a mixture of the most important hop polyphenols, resembling their respective concentration ratios in beer. Lastly, the two mixtures were combined in different ratios to assess potential combinatory effects toward ER activation.
ALP assays were performed as recently described ([23]). Briefly, 10,000 Ishikawa cells per well were seeded in 96-well plates and allowed to attach for 48 h in assay medium (phenol red - free DMEM/F-12 supplemented with 1% (v/v) CD-FBS and 1% (v/v) P/S). Stock solutions were prepared by solving test compounds in DMSO, which were then diluted to the test concentrations in assay medium, resulting in a final DMSO concentration of 0.1–0.2% (v/v) (depending on the number of mixed compounds in incubation solutions, but consistently reflected by the same concentration in the respective solvent control). Cells were incubated with incubation solutions containing the test compounds or combinations thereof for another 48 h. Subsequently, cells were washed with PBS and lyzed by shock-freezing. ALP activity was determined by monitoring the conversion of 4-nitrophenyl phosphate to 4-nitrophenol photometrically at 405 nm with a PerkinElmer Victor 3V^TM plate reader. The slope of the obtained dose-response curves was taken as a measure for the ER-dependent induction of ALP expression.
In brief, this method uses the mass-action law-derived median-effect equation (MDEE) to linearize dose-response curves of single compounds and combinations thereof. Subsequently, it facilitates the calculation of a parameter (the CI) which is indicative for the type and strength of a combinatory effect. […] To apply the model to ALP assay data, the latter were normalized to both, the solvent control and the positive control (1 nM E2, 100% effect). MDEE fitting and CI calculations were carried out using the CISNE tool ([26]) and MS Excel. Corresponding graphs and all further statistical calculations (normal distribution, one-way ANOVA, etc.) were carried out in Origin® 2020.

[3] = Pharmacokinetics of 8PN in humans receiving an extract from hops; assay type: in vivo; settings: consumption of 0.5–1 L of average-hopped beer, assuming linear kinetics
Text: (§1) An often-used justification for discarding endocrine disrupting phytoestrogens in beer as a health concern is that the low bioavailability of hop polyphenols would limit systemically achieved doses to non-hazardous concentrations. At first sight, this notion seems to be supported by pharmacokinetic studies. […] This might partially result from the additional formation of 8PN from the naturally co-occurring iX, the most prevalent prenylflavonoid in beer ([24]), within the human gut ([18]) and liver ([31]). This reaction should be regarded as a metabolic activation due to the much higher estrogenicity of the reaction product. Assuming linear kinetics, the consumption of 0.5–1 L of average-hopped beer (Table 2) could result in systemic 8PN concentrations around 0.5 nM, a dose sufficient to cause significant estrogenicity in our in vitro test system (Figure 2).

[4] = humans, extract from hops containing 0.25 mg 8PN; cited from earlier work
[5] = system: MCF-7 breast cancer cells; parameters: method as in PMID 28711546; settings: cited from earlier work
[6] = system: ER-dependent induction of ALP expression in Ishikawa cells; parameters: method as in PMID 30283786; settings: cited from earlier work
Ishikawa cells [7] = settings: cited from earlier work
[8] = Human intervention study, pharmacokinetics of XN; assay type: in vivo; settings: plasma, 20 mg, estimated from CMax/AUC assuming standard physiological parameters, read-out: bioavailability (rough estimate)
Text: as §1

[9] = parameters: method as in PMID 24038952; settings: humans, 20 mg of XN; cited from earlier work
[10] = Ishikawa cells, 48 h, scaled to 1 nM E2 = 100%

CC(C)=CCc1c(O)cc(O)c2c1O[C@H](c1ccc(O)cc1)CC2=O [8PN, 8-prenylnaringenin]
cytotoxicity at highest applied concentration (Ishikawa cells [1]; 500 nM): no cytotoxicity
ED50 of ALP induction [2, 10]: 2.44 ± 1.60 nM
lowest concentration inducing ALP expression (starting from) ([2]; Ishikawa cells, 48 h): 0.5 nM
plateau of enzymatic (ALP) activity [2]: about 75%
estimated systemic concentration [3]: around 0.5 nM
AUC [4]: 24.3 ± 8.9 ng·h/mL
CMax [4]: 1.4 ± 0.3 µg/L
Cmax [4]: 3.8 nM

OC(c1ccc(Cl)cc1)(c1ccc(Cl)cc1)C(Cl)(Cl)Cl [Dic, dicofol]
Onset of cytotoxicity (lowest observed effect level), LOEL (Ishikawa cells [1]): 50 µM
lowest concentration inducing ALP expression (starting from) ([2]; Ishikawa cells, 48 h): 10 nM

O=S1OCC2C(CO1)C1(Cl)C(Cl)=C(Cl)C2(Cl)C1(Cl)Cl (stereo not shown) [End, endosulfan]
Onset of cytotoxicity (lowest observed effect level), LOEL (Ishikawa cells [1]): 50 µM
lowest concentration inducing ALP expression (starting from) ([2]; Ishikawa cells, 48 h): 5 nM
ED50 of ALP induction ([2]; calculated with the CISNE tool): 12300 ± 2900 nM

OC(c1ccc(Cl)cc1)(c1cncnc1)c1ccccc1Cl (stereo not shown) [Fen, fenarimol]
Onset of cytotoxicity (lowest observed effect level), LOEL (Ishikawa cells [1]): 100 µM
lowest concentration inducing ALP expression (starting from) ([2]; Ishikawa cells, 48 h): 2.5 nM

O=C(O)CNCP(=O)(O)O [Glp, glyphosate]
cytotoxicity (Ishikawa cells [1]; concentrations up to 300 μM): neither ER-mediated gene expression nor cytotoxicity
cytotoxicity at highest applied concentration (Ishikawa cells [1]; up to 500 μM): no cytotoxicity
ER-mediated gene expression (ALP) ([2]; concentrations up to 300 μM): neither ER-mediated gene expression nor cytotoxicity; also recorded: did not act estrogenic
concentration causing estrogen-like growth stimulation [5]: ≥ 59 µM

C[C@]12CC[C@@H]3c4ccc(O)cc4C[C@@H](CCCCCCCCC[S+]([O-])CCCC(F)(F)C(F)(F)F)[C@H]3[C@@H]1CC[C@@H]2O (stereo partly shown) [ICI 182,780, fulvestrant, reference compound]
effect of co-incubation on estrogenicity of active compounds ([2]; co-incubation with active concentrations of the compounds): suppression of estrogenicity

CNC(=O)Oc1cc(C)c(SC)c(C)c1 [Met, methiocarb]
Onset of cytotoxicity (lowest observed effect level), LOEL (Ishikawa cells [1]): 100 µM
lowest concentration inducing ALP expression (starting from) ([2]; Ishikawa cells, 48 h): 10 nM

COc1cc(O)c(CC=C(C)C)c(O)c1C(=O)/C=C/c1ccc(O)cc1 [XN, xanthohumol]
estrogenicity in this test system [6]: not to act estrogenic
cytotoxicity in this experimental setup (Ishikawa cells [7]): non-cytotoxicity
bioavailability [8]: ~2%
area under the curve (AUC) [9]: 92 ± 68 ng·h/mL
peak plasma concentration (CMax) [9]: 33 ± 7 µg/L

COc1cc(O)c(CC=C(C)C)c2c1C(=O)CC(c1ccc(O)cc1)O2 (stereo not shown) [iX, isoxanthohumol]
Onset of cytotoxicity (lowest observed effect level), LOEL (Ishikawa cells [1]): 100 µM
ED50 of ALP induction [2, 10]: 342 ± 125 nM
lowest concentration inducing ALP expression (starting from) ([2]; Ishikawa cells, 48 h): 100 nM
plateau of enzymatic (ALP) activity [2]: about 75%
